Source: paper PMC10154249, “Unique progerin C-terminal peptide ameliorates Hutchinson–Gilford progeria syndrome phenotype by rescuing BUBR1” (Nature Aging, 2023)

Tests used:
IMR90 cells = assay: Ki67 immunofluorescence of IMR90 cells; type: cell-based, human
Procedure: Immunofluorescence was performed as described previously. Cells were plated on cover slips in 12-well plates, left overnight before the treatment. Cells were fixed in 1% formaldehyde in culture medium for 10 min at 37 °C and permeabilized with 0.2% Triton X-100 in PBS for 10 min at room temperature. Cells were washed twice in PBS and blocked for 1 h with 5% BSA in PBS and then incubated with primary antibodies at 4 °C overnight, washed three times in PBS and incubated with secondary antibodies for 1 h at room temperature. Cell nuclei were counterstained with a 500 nM concentration of 4,6-diamidino-2-phenylindole (DAPI) (Sigma). Images were acquired by a fluorescence microscope (OLYMPUS FV-1000, Carl Zeiss LSM880 or Leica DMi8) and analyzed with software NIS-Elements AR v.5.0.1 (Nikon), FLUOVIEW v.4.2b (OLYMPUS), ZEN v.2.3 SP1 (Carl Zeiss) and Leica Application Suite X v.3.6.0.24 (Leica). Cells were quantified by investigators who were blinded to the identity of the analyzed cell.

[1] = system: progerin–PTBP1 interaction; assay: CoIP of progerin and PTBP1 in HEK-293T cells; type: cell-based; conditions: CoIP in HEK-293T; HGPS cells
Procedure: Detailed descriptions of CoIP were described previously[55],[56]. Cells were harvested and washed three times in cold PBS, then lysed in CoIP buffer (25 mM Tris-HCl (pH 7.5), 150 mM KCl, 5 mM EDTA, and 0.5% NP-40) plus protease inhibitor cocktail tablet (Roche). Incubate on ice and shock lysates on the vortex shaker 15 times for 30 s each. Microcentrifuge in 12,000g for 15 min at 4 °C, collect the supernatant, and incubate with 3 μg primary antibodies with gentle shaking overnight at 4 °C, followed by adding 20–40 μl Pure Proteome Protein A/G Mix Magnetic Beads (Millipore, catalog no. […]02) for 3 h. Wash the beads three times with 1 ml CoIP buffer for 8 min each, resuspend in 50 μl 1× loading buffer, and incubate at 100 °C for 8 min. Throw beads away and analyze by immunoblotting.

Lmna^G609G/G609G mice = assay: Survival (Kaplan–Meier) of Lmna^G609G/G609G mice; type: in vivo, mouse
Text: All animal experiments were approved by the Ethics Committee of School of Life Sciences, Northeast Normal University, China (AP20191011) and carried out in accordance with the relevant guidelines: National Standards of the People’s Republic of China (GB/T 35892–2018), Laboratory Animal—Guideline for Ethical Review of Animal Welfare. We generated a mouse model (ICR background), carrying the Lmna^G609G using the BE4-Gam system. The protocols for the BE4-Gam system and microinjection of pronuclear-stage embryos have been described in detail previously[37],[38],[59]. Briefly, a mixture of BE4-Gam mRNA (200 ng μl^–1) and sgRNA-Lmna (30 ng μl^–1) was coinjected into the cytoplasm of pronuclear-stage embryos of the mouse. The injected embryos were transferred to embryo culture medium for 30–60 min, followed by transferring the injected embryos into the recipient mother. The embryos continued to develop and the founder mice (referred to as F0) were born: wild-type mice (Lmna^+/+), heterozygous mice (Lmna^G609G/+) and homozygous mice (Lmna^G609G/G609G). F1 heterozygous mice (Lmna^G609G/+) were obtained by crossing F0 heterozygous mice (Lmna^G609G/+). F2 homozygous mice (Lmna^G609G/G609G) were obtained by crossing F1 heterozygous mice (Lmna^G609G/+). We selected F2 mice (Lmna^+/+ and Lmna^G609G/G609G) for subsequent experiments. The mice were housed with a 12-h light/dark cycle (6:00 to 18:00) in a 20 °C and 40% humidity-controlled room. Water and rodent feed were fed ad libitum.
For UPCP injection, 14-day-old Lmna^G609G/G609G mice were injected intraperitoneally with either PBS or UPCP (20 mg kg^–1, every other day) and wild-type mice were injected with PBS. All phenotypic analyses were performed after 12 weeks of treatment with UPCP. Bodyweight and lifespan were monitored after UPCP treatment. The survival rate was analyzed by the Kaplan–Meier method. We only included mice that were of sufficient bodyweight at the start of the experiment, typically at least 80% of the average littermate weight of the same sex and genotype. All animals meeting criteria for inclusion were then divided randomly into three groups according to genotype (Lmna^+/+, Lmna^G609G/G609G-Mock and Lmna^G609G/G609G-UPCP).

HGADFN003 cells = assay: SA-β-gal staining of HGADFN003 cells; type: cell-based, human; conditions: for Relative percentage of SA-β-gal positive cells: Fig. 5a, Mock 32, 39, 31, P=0.0059; for SA-β-gal positive cells: HGADFN003, Extended Data Fig. 10c
Procedure: SA-β-gal staining was performed as previously described. Cells were fixed in 0.5% glutaraldehyde for 15 min at room temperature, washed three times with PBS (pH 6.0) containing 1 mM MgCl2 and exposed overnight 37 °C to containing 1 mg ml^–1 5-bromo-4-chloro-3-indolyl-β-D-galactopyranoside (MCE, catalog no. HY-15934), 0.12 mM potassium ferrocyanide (Sigma, catalog no. P3289), 0.12 mM potassium ferricyanide (Sigma, catalog no. P8131) and 1 mM MgCl2 PBS buffer (pH 6.0). Cells were washed three times with H2O and observed under a microscope (OLYMPUS CKX53). SA-β-gal positive cells were quantified by investigators who were blinded to the identity of the analyzed cell.

What does the source list for “H-YGRKKRRQRRRYNLRSRTVLCGTCGQPADKASASGSGAQSPQNCSIM-OH (cysteines drawn unpaired) [UPCP, unique progerin C-terminal peptide]”?
Ki67 positive cells (IMR90 cells; IMR90, replicate 1): 73%; Ki67 positive cells (IMR90 cells; IMR90, replicate 2): 84%; Ki67 positive cells (IMR90 cells; IMR90, replicate 3): 87%; interaction of PTBP1 and progerin [1]: weakened the interaction of PTBP1 and progerin; mean survival (Lmna^G609G/G609G mice; 20 mg kg^–1 i.p. every other day from 14 days of age, PBS 100.9 days): 118.6 days; median survival (Lmna^G609G/G609G mice; 20 mg kg^–1 i.p. every other day from 14 days of age, n = 15 UPCP vs n = 17 PBS (100 days)): 117 days; individual survival (Lmna^G609G/G609G mice; 20 mg kg^–1 i.p. every other day, female, individual 1 of 9): 103 days; individual survival (Lmna^G609G/G609G mice; 20 mg kg^–1 i.p. every other day, female, individual 2 of 9): 110 days; individual survival (Lmna^G609G/G609G mice; 20 mg kg^–1 i.p. every other day, female, individual 3 of 9): 110 days; individual survival (Lmna^G609G/G609G mice; 20 mg kg^–1 i.p. every other day, female, individual 4 of 9): 111 days; individual survival (Lmna^G609G/G609G mice; 20 mg kg^–1 i.p. every other day, female, individual 5 of 9): 117 days; individual survival (Lmna^G609G/G609G mice; 20 mg kg^–1 i.p. every other day, female, individual 6 of 9): 126 days; individual survival (Lmna^G609G/G609G mice; 20 mg kg^–1 i.p. every other day, female, individual 7 of 9): 128 days; individual survival (Lmna^G609G/G609G mice; 20 mg kg^–1 i.p. every other day, female, individual 8 of 9): 130 days; individual survival (Lmna^G609G/G609G mice; 20 mg kg^–1 i.p. every other day, female, individual 9 of 9): 136 days; individual survival (Lmna^G609G/G609G mice; 20 mg kg^–1 i.p. every other day, male, individual 1 of 6): 104 days; individual survival (Lmna^G609G/G609G mice; 20 mg kg^–1 i.p. every other day, male, individual 2 of 6): 106 days; individual survival (Lmna^G609G/G609G mice; 20 mg kg^–1 i.p. every other day, male, individual 3 of 6): 116 days; individual survival (Lmna^G609G/G609G mice; 20 mg kg^–1 i.p. every other day, male, individual 4 of 6): 118 days; individual survival (Lmna^G609G/G609G mice; 20 mg kg^–1 i.p. every other day, male, individual 5 of 6): 129 days; individual survival (Lmna^G609G/G609G mice; 20 mg kg^–1 i.p. every other day, male, individual 6 of 6): 135 days; increase in lifespan (median survival) (Lmna^G609G/G609G mice; 20 mg kg^–1 i.p. every other day, vs PBS-treated mice): 17%; Relative percentage of SA-β-gal positive cells (HGADFN003 cells; HGADFN003, replicate 1): 15%; Relative percentage of SA-β-gal positive cells (HGADFN003 cells; HGADFN003, replicate 2): 10%; Relative percentage of SA-β-gal positive cells (HGADFN003 cells; HGADFN003, replicate 3): 19%; SA-β-gal activity (FTI-277/UPCP comparison, words) (HGADFN003 cells; HGADFN003): decreased the activity of SA-β-gal; SA-β-gal positive cells (HGADFN003 cells; replicate 1): 12%; SA-β-gal positive cells (HGADFN003 cells; replicate 2): 18%; SA-β-gal positive cells (HGADFN003 cells; replicate 3): 25%; SA-β-gal activity (HGADFN003 cells; HGPS cells): reduced activity of SA-β-gal; efficacy on HGPS cellular senescence relative to FTI-277 (HGADFN003 cells; HGPS cells): comparable with farnesyltransferase inhibitors (FTI-277)
